Measurements published in ChEMBL document CHEMBL1147276, “Novel Acetylenic Acids from the Root Bark of Paramacrolobium caeruleum: Inhibitors of 3-Hydroxy-3-methyl-glutaryl Coenzyme A Reductase” (J Nat Prod, 1989).

Each molecule was assayed against T1, 3-hydroxy-3-methylglutaryl-coenzyme A reductase (Homo sapiens, UniProt P04035) (assay: Inhibition of human HMGCoA reductase). Conditions: not given; call rule not given here.
T1 sequence (P04035 whole entry): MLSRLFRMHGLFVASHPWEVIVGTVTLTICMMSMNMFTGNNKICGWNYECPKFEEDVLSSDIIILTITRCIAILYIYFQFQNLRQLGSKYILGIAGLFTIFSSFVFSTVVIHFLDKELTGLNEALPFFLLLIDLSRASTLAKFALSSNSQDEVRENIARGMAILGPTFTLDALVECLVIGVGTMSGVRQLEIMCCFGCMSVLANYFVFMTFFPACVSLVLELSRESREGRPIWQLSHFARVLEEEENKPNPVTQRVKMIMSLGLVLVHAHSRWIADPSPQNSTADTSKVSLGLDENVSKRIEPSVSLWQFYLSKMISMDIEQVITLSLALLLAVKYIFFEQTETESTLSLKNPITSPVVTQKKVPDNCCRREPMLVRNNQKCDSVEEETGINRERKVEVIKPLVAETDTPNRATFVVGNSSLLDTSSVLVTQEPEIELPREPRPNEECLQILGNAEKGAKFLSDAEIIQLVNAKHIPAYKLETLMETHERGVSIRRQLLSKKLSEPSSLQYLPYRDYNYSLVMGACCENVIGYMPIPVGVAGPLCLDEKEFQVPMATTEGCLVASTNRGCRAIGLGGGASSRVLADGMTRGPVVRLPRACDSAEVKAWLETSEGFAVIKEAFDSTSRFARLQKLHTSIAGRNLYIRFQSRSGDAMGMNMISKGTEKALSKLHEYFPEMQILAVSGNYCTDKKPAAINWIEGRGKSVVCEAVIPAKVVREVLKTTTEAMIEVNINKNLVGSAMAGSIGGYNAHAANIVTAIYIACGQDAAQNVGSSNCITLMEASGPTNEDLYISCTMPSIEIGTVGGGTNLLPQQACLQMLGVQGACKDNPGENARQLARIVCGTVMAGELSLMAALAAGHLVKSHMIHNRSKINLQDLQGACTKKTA

`CCCCCCCC/C=C\CCCCCCCC(=O)O` [OLEIC ACID] was tested, and the IC50 was “Not Active”.
With `CCCCCCCCCCCCCCCCCC(=O)O` [STEARIC ACID] the IC50 was “Not Active”.

Same assay, conditions: read-out: IC50

`CCCCCCCCC#CC#CC(O)CCCCC(=O)O` (centres undefined) and `CCCCCCCCC#CC#CCCCCCC(=O)O` are within 1.5-fold of each other in IC50: 7 µM for the first, 5 µM for the second.

First: CCCCCCCCC#CCCCCCCCC(=O)O
Second: CCCCC#CC#CCCCCCC(=O)O
The IC50 of the first is 1.7-fold higher: 5 µM for the first, 3 µM for the second.

Going from `CCCCCCCCC#CC#CC1OC1CCCC(=O)O` (centres undefined) to `CCCCCCCCC#CC#C/C=C/CCCC(=O)O`, the IC50 falls from 5 µM to 0.5 µM (10-fold).

`CCCCCCCCC#CC#C/C=C\CCCC(=O)O` gave an IC50 of 1.5 µM.
